Where no end group is shown, it is not given here. The star is where a group is joined. Biotin = O=C1N[C@H]2[C@H](CS[C@H]2CCCCC(=O)*)N1
B1: Engineered Peptide: recombinant triblock reagent: two tooth-binding peptides (SEQ 108), spacers, two cellulose acetate-binding peptides (SEQ 118), His-tag; applied with cellulose acetate-coated TiO2 (protein)
chain: PHMASMTGGQQMGSYSETPNDQKPNPHYKVSGTKGPEEAAKKEEAAKKPAYSETPNDQKPNPHYKVSGTKGSGGGGSGSGGGGSVRPNLHRKAKAKPDHKQSENRKVPFYSHGSSGGGGVRPNLHRKAKAKPDHKQSENRKVPFYSHGSSGGGHHHHHH
modifications: applied with cellulose acetate-coated TiO2; Synthetic peptide-based tooth whitening reagent

Experiments:
[1] = tested on: pellicle-coated bovine enamel; experiment: Phage ELISA on pellicle-coated bovine enamel, candidates from brushed 8 hr pellicle, Example 17; type: binding, human; conditions: phage ELISA screened with 30 min in vivo pellicle; normalized to DenP3; no-phage control 0.094
Method: A total of 18 selected phage candidates were used in a phage ELISA Experiment. Purified phage lysates were used for binding to pellicle-coated bovine enamel using an anti-M13 phage antibody conjugated to horseradish-peroxidase, followed by the addition of chromogenic agent TMB, obtained from Pierce Biotechnology (Rockford, Ill.). The plates were read at A450nm.
The wells were rinsed 2 times with wash buffer consisting of PBST. The wells were filled with 1 mL of […] purified phage stock which was prepared by diluting in blocking buffer. […] The non-binding phage was removed by washing 5 times with PBST. Then, 500 μL of horseradish peroxidase/anti-M13 antibody conjugate (Amersham USA, Piscataway, N.J.), diluted 1:500 in the blocking buffer, was added and incubated for 45 min at room temperature. The conjugate solution was removed and was washed 5 times with PBST.

[2] = tested on: pellicle-coated enamel substrates; conditions: 20 μM synthetic biotinylated peptide, 30 min at 37° C.; normalized to DenP03; three replicates; no peptide −0.001
Method: A total of 20 synthetic peptides were manufactured using sequences obtained from Table 14. Peptides were obtained from Synbiosci (Livermore, Calif.) and included an additional SSRP sequence (SEQ ID NO: 151) at the N-terminus and biotin labeled lysine at the C-terminus.
Enamel substrates were cut to approx. 7 mm squares and mounted on wax mounting for incubation in the mouth for 30 min to form a pellicle coated surface. The pellicle-coated enamel substrates were removed from the wax backing and placed in well plates with the pellicle surface exposed as in Example 1. Each pellicle-coated substrate was incubated for 1 h at room temperature (˜22° C.) with 1 mL of blocking buffer, consisting of 1 mg/mL BSA in PBST (Pierce BupH™ #28372 with 0.1% TWEEN® 20). The blocking buffer was removed by aspirating the liquid out of each well. The tube was rinsed 2 times with wash buffer consisting of PBST. The wells were filled with 500 μL of 20 μM peptide solution which was prepared by diluting in blocking buffer. The samples were incubated for 30 min with slow shaking at 37° C. The non-binding peptide was removed by washing 6 times with PBST. Then, 500 μL of horseradish peroxidase/streptavidin conjugate (Pierce #22127), diluted 1:2000 in PBST, was added and incubated for 1 h at room temperature. The conjugate solution was removed and was washed 4 times with PBST.
Each enamel substrate was removed from the well and washed again in a 15-mL test tube with 10 mL of PBST. Each enamel substrate was then mounted in a clean well plate with only the enamel surface exposed. A 1:1 solution of TMB substrate and H2O2 (200 μL), obtained from Pierce Biotechnology (Rockford, Ill.) was added to each well and the color was allowed to develop for between 10 to 20 min, typically for 15 min, at room temperature (˜22° C.). Then, 100 μL of solution from each well was transferred to a 96-well reading plate containing stop solution (100 μL of 2 M H2SO4) in each well. The A450 was measured using a microplate spectrophotometer (Molecular Devices, Sunnyvale, Calif.). […] Each sequence was tested with three replicate enamel coated pellicle substrates.

[3] = tested on: pellicle coated bovine enamel; experiment: Phage ELISA on pellicle-coated bovine enamel (30 min in vivo pellicle), Example 13; type: binding, human; conditions: 10^11 pfu, 30 min at 37° C., normalized to an internal control
Method: A total of 29 selected phage candidates from Table 14 were used in phage ELISA Experiment to determine binding affinity and coverage of each phage on pellicle substrates. Purified phage lysates were used for binding to pellicle coated bovine enamel using an anti-M13 phage antibody conjugated to horseradish-peroxidase, followed by the addition of chromogenic agent TMB, obtained from Pierce Biotechnology (Rockford, Ill.). The plates were read at A450nm.
The wells were filled with 1 mL of 10^11 pfu purified phage stock which was prepared by diluting in blocking buffer. […] The non-binding phage was removed by washing 5 times with PBST. […] The conjugate solution was removed and was washed 3 times with PBST.

[4] = Whitening of tea-stained bovine enamel with peptide reagent and cellulose acetate-coated TiO2 (CIELAB colour); design: key to L* / a* / b*: CIELAB coordinates: L* lightness, a*/b* chromaticity (D65 illuminant); key to ΔE: ΔE = ((ΔL*)²+(Δa*)²+(Δb*)²)^½ vs tea-stained baseline
Method: The peptide-based reagent comprising multiple tooth-binding peptides, spacers, and cellulose acetate-binding peptide sequences was prepared as described in Example 8.
The cellulose acetate-coated titanium dioxide was prepared as described in Example 10. The peptide-based reagent described in Example 8 (SEQ ID NO:116) was used. The peptide-based reagent was diluted with 25 mM Tris-HCl buffer including 150 mM NaCl at pH 7.5 to give a final concentration of 5 μM. The cellulose acetate-coated titanium dioxide dispersion described in Example 10 was further diluted from 20% solids to 0.25% solids in 25 mM Tris-HCl buffer at pH 7.5.
Bovine Teeth (SE Dental, Baton Rouge, La.) were used as model substrate to test with the engineered peptide-based reagent designed to bind to tooth enamel (SEQ ID NO:116). The teeth were prepared by cleaning in detergent and then disinfecting in 70% Ethanol prior to use. Each clean tooth was measured for color using an X-RITE® SP64 Spectrometer to collect a reflectance spectrum and CIELAB color coordinates, L*, a* and b*. A staining solution was made with 100 mL of boiling water exposed to 1 Lipton tea bag for 5 minutes. After the solution cooled to room temperature, each tooth was allowed to incubate in the staining solution for approximately 3 days. The teeth were removed and rinsed with water and dried. Color measurement was obtained for each tooth.
The stained bovine enamel substrates were exposed to either the 5 μM solution of peptide or as a control, the buffer used to make the peptide solution. This exposure was for 30 minutes with gentle agitation in a vortex mixer. Following peptide binding, the teeth were removed and rinsed in buffer and placed in a 0.25% solution of cellulose acetate coated titanium dioxide for 30 minutes. The teeth were removed, rinsed in buffer, blotted dry and measured for color using the X-RITE® spectrometer. The teeth were placed back in the same pigment solutions for an additional 2.5 hr and removed, rinsed and measured again.
The color intensity at each step mentioned above (e.g., to determine the change in tooth whitening) was measured using a X-RITE® SP64™ Sphere Spectrophotometer (X-Rite, Inc., Grandville, Mich.), by placing the front of the bovine tooth (treated or control) sample into a sample holder and calculating L*, a* and b* parameters representing the photometer response using a standard D65 illuminant. An initial baseline values of L*, a* and b* were measured prior to peptide treatment for the tea-stained bovine samples. All measurements are the average of three individual determinations. Delta E values are calculated using equation 1 below: Delta E=((L*1−L*2)^2+(a1−a2)^2+(b1−b2)^2)^1/2 (1) where L*=the lightness variable and a* and b* are the chromaticity coordinates of CIELAB colorspace as defined by the International Commission of Illumination (CIE) (Minolta, Precise Color Communication—Color Control From Feeling to Instrumentation, Minolta Camera Co., 1996). Larger Delta E value is indicative of an increase in whiteness. In one embodiment, a larger Delta E for the treatment group (peptide-based reagent+polymer coated white colorant) versus the Delta E of the peptide-free control is used to determine the relative increase in whiteness.

[5] = after additional 2.5 hr in CA-TiO2

Molecule | O.D. at 450 nm (normalized) [1] | O.D. at 450 nm (normalized) [2] | further results
GGMGALESYRQWNHLA [DenP113] | 1.348 | – | –
EFYPFAEVPPEKSGIGRQVF [DenP102] | 0.520 | – | –
GYQPHYVDHTIGWQPMIRPN [DenP104] | 0.790 | – | –
SSRPGPQHVLMQDTHQGYAFDNK(Biotin) [DenP16-A] | – | 0.309 | –
QFNQTSHSFMHGTSGYVPGK [DenP105] | 0.470 | – | –
SSRPTYQGVPSWPAVIDDAIRRK(Biotin) [DenP19-A] | – | 0.712 | –
SSRPQVPDYLSPTHQKKAFLEIPTK(Biotin) [DenP29-A] | – | 0.468 | –
GVHQYSRPTVPSYLWTSGQH [DenP103] | 0.879 | – | –
SSRPIYPNESMSTSNVRGPYHPK(Biotin) [DenP22-A] | – | 0.354 | –
SSRPTMTNHVYNSYTEKHSSTHRSK(Biotin) [DenP2-A] | – | 0.273 | –
HDHLSWWGQFDRQNLL [DenP116] | 1.055 | – | –
SSRPYLLPKDQTTAPQVTPIVQHKK(Biotin) [DenP5-A] | – | 0.462 | –
THGNKHQSWTYPSEINHKNY [DenP108] | 1.149 | – | –
SSRPTTGSSSQADTSASMSIVPAHK(Biotin) [DenP17-A] | – | 0.143 | –
SSRPVEPATKNMREARSSTQMRRIK(Biotin) [DenP4-A] | – | 0.803 | –
GYGQYVSQQTWAHSNK [DenP115] | 0.501 | – | –
DGYKLQTSLDWQMWNP [DenP111] | 1.051 | – | –
TTYHYKNIYQESYQQRNPAV (Synthetic oral-surface binding peptide) [DenP 03] | 1.000 | – | O.D. at 450 nm (normalized) [3]: 2.495
MPGHQESIKVQNWNRV [DenP117] | 0.433 | – | –

Molecule | O.D. at 450 nm (normalized) [1] | O.D. at 450 nm (normalized) [2] | further results
NQQMKLVPQHWHRAQP [DenP119] | 1.051 | – | –
SSRPQAAQVHMMQHSRPTTK(Biotin) [DenP13-A] | – | 0.699 | –
SMWHDITKRYRNPSEMVSAY [DenP107] | 0.726 | – | –
SSRPHDPNHLTHQARTIYRNANHTK(Biotin) [DenP23-A] | – | 0.850 | –
SSRPELDHDSRHYMNGLQRKVTK(Biotin) [DenP15-A] | – | 0.460 | –
SSRPVNPNWVETQALHQPPGNTK(Biotin) [DenP20-A] | – | 0.590 | –
SSRPFDGIGLGTATRHQNRK(Biotin) [DenP12-A] | – | 0.475 | –
AIEYQHSATTPWTMRTRLPP [DenP101] | 0.467 | – | –
SSRPEFPYYNDNPPNPERHTLRK(Biotin) [DenP7-A] | – | 0.356 | –
WHEPHQFSGENTDYSSSMGT [DenP109] | 0.716 | – | –
SSRPNGNNHTDIPNRSSYTGGSFAK(Biotin) [DenP1-A] | – | 0.154 | –
NLHSPWPSHAAHHWST [DenP118] | 0.641 | – | –
SSRPAPPTYQTASYPHNLPSKRKMK(Biotin) [DenP28-A] | – | 0.811 | –
SSRPDLGTFPNRTLKMAAHK(Biotin) [DenP11-A] | – | 0.454 | –
SSRPSEARARTFNDHTTPMPIIK(Biotin) [DenP14-A] | – | 0.269 | –
FPSKWYNHHRHITGHV [DenP112] | 0.413 | – | –
GINKGQRPPWESWHEN [DenP114] | 0.703 | – | –
SFSWHRGDWELGHQSKTMGM [DenP106] | 1.524 | – | –
B1 | – | – | ΔE ([4]; 5 μM peptide 30 min + 0.25% CA-TiO2 30 min, versus tea-stained baseline, buffer control 3.25): 6.68; a* ([4]; 5 μM peptide 30 min + 0.25% CA-TiO2 30 min, tea-stained baseline 3.96396): 1.635; b* ([4]; 5 μM peptide 30 min + 0.25% CA-TiO2 30 min, tea-stained baseline 22.7952): 18.0418; L* ([4]; 5 μM peptide 30 min + 0.25% CA-TiO2 30 min, tea-stained baseline 67.0271): 71.1068; L* [4, 5]: 73.9558; a* [4, 5]: 1.496; b* [4, 5]: 18.0851; ΔE ([4]; after additional 2.5 hr in CA-TiO2, versus tea-stained baseline, buffer control 3.80): 8.73

Source: patent publication US8481678B2, “Peptide-based tooth whitening reagents” (E I du Pont de Nemours and Company, priority 2009, dated 2013)
